What all share (test): Kinase assay, binding constants (Kd), kinase-tagged T7 phage, qPCR
For one assay, the target named is FGFR1 (Homo sapiens (Human), UniProt P11362). Put shortly: (§1)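 Competition binding: T7 phage-tagged kinase + biotin-ligand beads + compound (11 pts, 3-fold, 0.9% DMSO). Elution 30 min RT with free ligand; qPCR quantitation. Kd via Hill fit, slope −1.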
For a further assay, the target named is FGFR2 (Homo sapiens (Human), UniProt P21802). Put shortly: as §1
In another assay the target is FGFR3 (Homo sapiens (Human), UniProt P22607). Put shortly: as §1
FGFR3, sequence (P22607 23-806): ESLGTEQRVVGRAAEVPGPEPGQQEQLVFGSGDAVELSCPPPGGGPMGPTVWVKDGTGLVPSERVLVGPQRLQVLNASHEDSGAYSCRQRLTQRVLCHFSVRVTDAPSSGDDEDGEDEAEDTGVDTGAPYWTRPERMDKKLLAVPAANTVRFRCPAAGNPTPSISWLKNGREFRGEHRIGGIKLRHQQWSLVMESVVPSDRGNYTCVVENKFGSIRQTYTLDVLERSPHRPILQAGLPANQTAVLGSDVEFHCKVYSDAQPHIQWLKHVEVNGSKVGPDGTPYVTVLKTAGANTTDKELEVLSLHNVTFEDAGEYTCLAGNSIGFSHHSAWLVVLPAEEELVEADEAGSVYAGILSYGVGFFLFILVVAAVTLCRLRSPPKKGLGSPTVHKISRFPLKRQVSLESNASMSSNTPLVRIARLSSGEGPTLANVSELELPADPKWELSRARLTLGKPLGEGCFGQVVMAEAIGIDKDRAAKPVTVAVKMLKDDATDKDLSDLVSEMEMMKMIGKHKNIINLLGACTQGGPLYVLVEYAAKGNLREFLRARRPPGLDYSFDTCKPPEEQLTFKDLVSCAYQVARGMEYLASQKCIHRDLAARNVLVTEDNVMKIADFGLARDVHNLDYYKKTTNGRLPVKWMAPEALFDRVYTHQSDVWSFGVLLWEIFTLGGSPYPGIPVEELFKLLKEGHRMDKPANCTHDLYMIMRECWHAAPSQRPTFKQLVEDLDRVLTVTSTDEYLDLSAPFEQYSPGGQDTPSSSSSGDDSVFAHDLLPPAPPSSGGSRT
In a further assay the target is FGFR3 (V555M) (Homo sapiens (Human), UniProt P22607, V555M). Conditions: V555M mutant. The method, boiled down: as §1
FGFR3 (V555M), sequence (P22607 23-806 V555M): as the sequence (P22607 23-806) above, with V533M counted along it
In another assay the target is FGFR4 (Homo sapiens (Human), UniProt P22455). The method, boiled down: as §1
FGFR4, sequence (P22455 22-802): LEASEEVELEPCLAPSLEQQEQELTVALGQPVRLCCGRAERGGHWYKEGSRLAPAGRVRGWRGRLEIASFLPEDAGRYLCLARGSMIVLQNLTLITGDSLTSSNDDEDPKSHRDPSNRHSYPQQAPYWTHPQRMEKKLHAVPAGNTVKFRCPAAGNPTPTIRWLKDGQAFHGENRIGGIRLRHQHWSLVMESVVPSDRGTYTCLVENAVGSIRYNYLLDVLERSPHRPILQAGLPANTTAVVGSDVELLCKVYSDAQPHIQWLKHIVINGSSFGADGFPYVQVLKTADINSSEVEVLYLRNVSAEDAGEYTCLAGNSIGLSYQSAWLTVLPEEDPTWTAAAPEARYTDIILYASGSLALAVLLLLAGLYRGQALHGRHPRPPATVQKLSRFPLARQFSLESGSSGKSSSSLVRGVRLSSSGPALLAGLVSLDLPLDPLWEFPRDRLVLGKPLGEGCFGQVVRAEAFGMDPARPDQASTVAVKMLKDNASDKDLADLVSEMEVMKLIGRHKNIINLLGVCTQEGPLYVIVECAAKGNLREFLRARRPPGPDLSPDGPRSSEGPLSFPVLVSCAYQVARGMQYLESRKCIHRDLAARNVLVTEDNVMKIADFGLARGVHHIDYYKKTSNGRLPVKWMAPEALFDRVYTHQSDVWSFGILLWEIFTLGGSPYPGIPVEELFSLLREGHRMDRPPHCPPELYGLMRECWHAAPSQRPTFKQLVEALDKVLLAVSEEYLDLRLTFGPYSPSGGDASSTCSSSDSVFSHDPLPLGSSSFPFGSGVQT

Structures are written as SMILES.

FGFR1, sequence (P11362 22-822): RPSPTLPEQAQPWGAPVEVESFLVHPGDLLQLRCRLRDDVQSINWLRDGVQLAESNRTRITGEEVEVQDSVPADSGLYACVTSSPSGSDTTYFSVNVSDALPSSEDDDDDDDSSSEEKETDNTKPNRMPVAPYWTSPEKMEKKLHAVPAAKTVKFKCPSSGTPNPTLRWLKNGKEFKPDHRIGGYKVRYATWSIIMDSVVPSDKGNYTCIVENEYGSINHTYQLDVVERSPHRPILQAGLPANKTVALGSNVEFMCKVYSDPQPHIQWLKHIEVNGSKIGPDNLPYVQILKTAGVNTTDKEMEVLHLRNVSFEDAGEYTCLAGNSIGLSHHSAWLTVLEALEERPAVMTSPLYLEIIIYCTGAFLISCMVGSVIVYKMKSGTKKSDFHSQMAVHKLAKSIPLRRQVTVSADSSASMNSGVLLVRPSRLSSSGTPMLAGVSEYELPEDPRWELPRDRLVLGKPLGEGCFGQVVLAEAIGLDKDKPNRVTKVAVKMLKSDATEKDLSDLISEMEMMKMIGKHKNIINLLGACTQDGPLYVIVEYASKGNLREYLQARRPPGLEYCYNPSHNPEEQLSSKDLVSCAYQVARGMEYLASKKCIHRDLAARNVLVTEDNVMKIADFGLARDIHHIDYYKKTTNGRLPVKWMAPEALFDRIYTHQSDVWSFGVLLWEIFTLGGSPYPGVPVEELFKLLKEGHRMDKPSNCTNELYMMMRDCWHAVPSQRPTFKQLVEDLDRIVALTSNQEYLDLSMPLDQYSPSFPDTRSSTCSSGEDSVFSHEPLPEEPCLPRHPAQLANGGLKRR
FGFR2, sequence (P21802 22-821): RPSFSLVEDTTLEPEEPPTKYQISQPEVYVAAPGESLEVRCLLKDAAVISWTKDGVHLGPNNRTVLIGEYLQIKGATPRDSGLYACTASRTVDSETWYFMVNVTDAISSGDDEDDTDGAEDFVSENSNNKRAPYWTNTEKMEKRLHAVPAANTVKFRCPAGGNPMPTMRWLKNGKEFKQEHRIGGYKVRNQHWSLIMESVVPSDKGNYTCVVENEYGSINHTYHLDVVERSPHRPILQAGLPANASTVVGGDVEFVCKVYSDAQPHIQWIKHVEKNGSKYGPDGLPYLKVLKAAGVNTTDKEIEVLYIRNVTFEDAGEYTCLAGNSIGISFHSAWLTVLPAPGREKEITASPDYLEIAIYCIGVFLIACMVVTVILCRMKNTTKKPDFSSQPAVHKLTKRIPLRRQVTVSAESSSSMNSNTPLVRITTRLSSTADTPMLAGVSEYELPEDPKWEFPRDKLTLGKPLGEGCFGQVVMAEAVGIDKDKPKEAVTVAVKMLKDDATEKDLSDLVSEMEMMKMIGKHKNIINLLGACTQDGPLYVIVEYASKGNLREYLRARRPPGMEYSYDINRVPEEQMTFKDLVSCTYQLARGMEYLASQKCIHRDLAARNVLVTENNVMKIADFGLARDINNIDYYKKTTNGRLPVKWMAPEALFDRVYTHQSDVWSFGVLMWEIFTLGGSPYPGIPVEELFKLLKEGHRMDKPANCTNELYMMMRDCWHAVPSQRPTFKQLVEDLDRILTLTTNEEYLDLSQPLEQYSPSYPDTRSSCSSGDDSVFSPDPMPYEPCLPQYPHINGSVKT

With `C[C@@H](Oc1ccc2[nH]nc(-c3cnc(N4CC(C)(N)C4)c(F)c3)c2c1)c1c(Cl)cncc1Cl` [Example 265, (R)-1-(5-(5-(1-(3,5-dichloropyridin-4-yl)ethoxy)-1H-indazol-3-yl)-3-fluoropyridin-2-yl)-3-methylazetidin-3-amine], the Kd on FGFR1, on FGFR2, at FGFR3, on FGFR3 (V555M) and at FGFR4 was 1 to 20 nM in each case.
On to `Cc1ncc(Cl)c([C@@H](C)Oc2cc3c(-c4ccc(N5CC6(C5)CN(S(C)(=O)=O)C6)nc4)n[nH]c3cc2F)c1Cl` [Example 266, 5-[(1R)-1-(3,5-dichloro-2-methyl-4-pyridyl)ethoxy]-6-fluoro-3-[6-(2-methylsulfonyl-2,6-diazaspiro[3.3]heptan-6-yl)-3-pyridyl]-1H-indazole], for which the Kd at FGFR1, on FGFR2, at FGFR3, on FGFR3 (V555M) and at FGFR4 was 1 to 20 nM throughout.
Consider `COc1cc2[nH]nc(-c3cnc(N4CC[C@H]4C)c(F)c3)c2cc1O[C@H](C)c1c(Cl)cncc1Cl` [Example 267, 5-((R)-1-(3,5-dichloropyridin-4-yl)ethoxy)-3-(5-fluoro-6-((R)-2-methylazetidin-1-yl)pyridin-3-yl)-6-methoxy-1H-indazole], for which the Kd on FGFR1 lay in the range of 20 to 100 nM; on FGFR2, 20 to 100 nM; at FGFR3 it was 1 to 20 nM; at FGFR3 (V555M) it was 1 to 20 nM; at FGFR4 it was 1 to 20 nM.
Turning to `COc1cc2[nH]nc(-c3cnc(N4CCC4)c(F)c3)c2cc1O[C@H](C)c1c(Cl)cncc1Cl` [Example 268, (R)-3-(6-(azetidin-1-yl)-5-fluoropyridin-3-yl)-5-(1-(3,5-dichloropyridin-4-yl)ethoxy)-6-methoxy-1H-indazole], the Kd at FGFR1 lay within 20 to 100 nM; on FGFR2 it was 20 to 100 nM; on FGFR3 it was 1 to 20 nM; at FGFR3 (V555M) it was 1 to 20 nM; on FGFR4, 1 to 20 nM.
As to `Cc1ncc(Cl)c([C@@H](C)Oc2cc3c(-c4cnc(N5CC6(C5)CN(S(C)(=O)=O)C6)c(F)c4)n[nH]c3cc2F)c1Cl` [Example 269, 5-[(1R)-1-(3,5-dichloro-2-methyl-4-pyridyl)ethoxy]-6-fluoro-3-[5-fluoro-6-(2-methylsulfonyl-2,6-diazaspiro[3.3]heptan-6-yl)-3-pyridyl]-1H-indazole], the Kd is 20 to 100 nM at FGFR1; 20 to 100 nM at FGFR2; 1 to 20 nM at FGFR3; 1 to 20 nM at FGFR3 (V555M); 1 to 20 nM at FGFR4.
For `Cc1ncc(Cl)c([C@@H](C)Oc2cc3c(-c4cnc(N5CC6(C5)CN(S(C)(=O)=O)C6)c(F)c4)n[nH]c3cc2Cl)c1Cl` [Example 270, 6-chloro-5-[(1R)-1-(3,5-dichloro-2-methyl-4-pyridyl)ethoxy]-3-[5-fluoro-6-(2-methylsulfonyl-2,6-diazaspiro[3.3]heptan-6-yl)-3-pyridyl]-1H-indazole], the Kd is 20 to 100 nM on FGFR1; 20 to 100 nM at FGFR2; 1 to 20 nM on FGFR3; 1 to 20 nM at FGFR3 (V555M); 1 to 20 nM at FGFR4.
On to `COc1cc2[nH]nc(-c3cnc(N4CC[C@@H]4C)c(F)c3)c2cc1O[C@H](C)c1c(Cl)cncc1Cl` [Example 271, 5-((R)-1-(3,5-dichloropyridin-4-yl)ethoxy)-3-(5-fluoro-6-((S)-2-methylazetidin-1-yl)pyridin-3-yl)-6-methoxy-1H-indazole], for which the Kd lay in the range of 20 to 100 nM at FGFR1; 20 to 100 nM at FGFR2; 1 to 20 nM on FGFR3; 1 to 20 nM on FGFR3 (V555M); 1 to 20 nM on FGFR4.
As to `C[C@@H]1CCN1c1ncc(-c2n[nH]c3cc(Cl)c(O[C@H](C)c4c(Cl)cncc4Cl)cc23)cc1F` [Example 272, 6-chloro-5-((R)-1-(3,5-dichloropyridin-4-yl)ethoxy)-3-(5-fluoro-6-((R)-2-methylazetidin-1-yl)pyridin-3-yl)-1H-indazole], the Kd on FGFR1 is more than 300 nM; at FGFR2, more than 300 nM; on FGFR3, 20 to 100 nM; on FGFR3 (V555M), 20 to 100 nM; at FGFR4, 20 to 100 nM.

Usually Kd stands for the concentration at which binding is half-saturated. Read a low Kd as a tighter complex.

(Values after patent US20240109865A1, “INDAZOLE COMPOUNDS AS KINASE INHIBITORS” (TYRA BIOSCIENCES, INC., priority 2020, published 2024).)
